Assay results: patent US9403802B2, “Heterocyclic compound and use therefor” (Takeda Pharmaceutical Company Limited, priority 2012, dated 2016)
pEC50: −log10 of the molar value. Where two headings read alike, the source gives them in different places.

Biological target: T1, human M1 receptor (hCHRM1) (Homo sapiens, UniProt P11229)
T1 construct: expressed in transfected cells; host or cells: CHO-K1
T1 sequence (P11229 1-460): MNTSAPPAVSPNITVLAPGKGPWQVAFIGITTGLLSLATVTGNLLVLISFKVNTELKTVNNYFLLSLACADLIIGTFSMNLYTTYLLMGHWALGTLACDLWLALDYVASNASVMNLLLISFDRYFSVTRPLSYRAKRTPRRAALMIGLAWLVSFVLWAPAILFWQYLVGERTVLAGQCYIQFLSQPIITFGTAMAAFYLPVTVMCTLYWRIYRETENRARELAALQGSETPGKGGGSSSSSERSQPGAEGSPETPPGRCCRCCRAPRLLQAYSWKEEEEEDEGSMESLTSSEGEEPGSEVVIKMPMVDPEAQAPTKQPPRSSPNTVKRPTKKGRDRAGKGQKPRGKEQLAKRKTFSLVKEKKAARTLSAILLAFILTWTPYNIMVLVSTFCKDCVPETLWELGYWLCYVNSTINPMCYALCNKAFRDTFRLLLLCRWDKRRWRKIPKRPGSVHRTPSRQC
Assay: Measurement of cholinergic muscarinic M1 receptor positive allosteric modulator (M1PAM) activity, calcium fluorescence (FLIPRtetra)
Type: cell-based
Settings: for activity (%) at 10 μM: test compound 10 μM with acetylcholine at EC20 (final 0.6 nM), 100% = acetylcholine 1 μM, 0% = DMSO
Description: The activity of a test compound in the presence of acetylcholine at EC20 concentration (final concentration 0.6 nM), which affords an action corresponding to 20% of the maximum activity, was measured as M1PAM activity. The method is as follows. CHO-K1 cells forcibly expressing a human M1 receptor (hCHRM1) were plated on a 384-well black clear bottom plate (BD Falcon) at 5,000 cells/well, and cultured in an incubator at 37° C., 5% CO2 for 1 day. The medium in the cell plate was removed, and assay buffer A (Recording medium (DOJINDO LABORATORIES), 0.1% bovine serum albumin (BSA) (Wako Pure Chemical Industries, Ltd.), 2.5 μg/mL Fluo-4 AM (DOJINDO LABORATORIES), 0.08% Pluronic F127 (DOJINDO LABORATORIES), 1.25 mM probenecid (DOJINDO LABORATORIES)) containing a calcium indicator was added at 30 μL/well. The cells were left standing in the incubator at 37° C., 5% CO2 for 30 min, and further left standing at room temperature for 30 min. A test compound prepared by diluting with assay buffer B (HBSS (Invitrogen), 20 mM HEPES (Invitrogen), 0.1% BSA) containing 2.4 nM acetylcholine was added at 10 μL/well, and the fluorescence was measured by FLIPRtetra (Molecular Devices) for 1 min every 1 second. With the definition that the amount of change in the fluorescence on addition of acetylcholine (final concentration 1 μM) is 100% and that on addition of DMSO instead of a test compound is 0%, the activity (%) of the test compound and the inflection point in the concentration-dependent curve of the test compound were calculated as IP values.

[1] = inflection point of the concentration-dependent curve, with acetylcholine at EC20 (final 0.6 nM), CHO-K1 cells expressing hCHRM1, read-out: IP value

SMILES	pEC50	activity (%) at 10 μM (CHO-K1 cells expressing hCHRM1) [%]	pEC50 [1]
O=C(N[C@H]1CCCC[C@@H]1O)c1cn(Cc2ccc(-n3cccn3)cc2)c2c(F)ccc(F)c2c1=O (racemic) [Example 3, 5,8-difluoro-N-[(1,2-trans)-2-hydroxycyclohexyl]-4-oxo-1-[4-(1H-pyrazol-1-yl)benzyl]-1,4-dihydroquinoline-3-carboxamide]	8.06	93	
O=C(N[C@H]1CCCC[C@@H]1O)c1nn(Cc2ccc(-n3cccn3)cc2)c2ccccc2c1=O (racemic) [Example 4, N-[(1,2-trans)-2-hydroxycyclohexyl]-4-oxo-1-[4-(1H-pyrazol-1-yl)benzyl]-1,4-dihydrocinnoline-3-carboxamide]		107	7.57
COc1ccc(Cn2cc(C(=O)N[C@H]3CCC[C@@H]3O)c(=O)c3c(F)ccc(F)c32)cc1 (racemic) [Example 25, 5,8-difluoro-N-[(1,2-trans)-2-hydroxycyclopentyl]-1-(4-methoxybenzyl)-4-oxo-1,4-dihydroquinoline-3-carboxamide]		98	6.72
COc1ccc(Cn2cc(C(=O)NC3CCCCC3CO)c(=O)c3c(F)ccc(F)c32)cc1 (racemic) [Example 65, 5,8-difluoro-N-[(1,2-trans)-2-(hydroxymethyl)-cyclohexyl]-1-(4-methoxybenzyl)-4-oxo-1,4-dihydroquinoline-3-carboxamide]		96	6.38
COc1ccc(Cn2nc(C(=O)N[C@H]3CCOC[C@@H]3O)c(=O)c3ccccc32)cc1 (racemic) [Example 71, 1,5-anhydro-2,3-dideoxy-3-({[1-(4-methoxybenzyl)-4-oxo-1,4-dihydrocinnolin-3-yl]carbonyl}amino)-DL-threo-pentitol]		97	7.80
NC(=O)c1ccc(Cn2cc(C(=O)N[C@H]3CCCC[C@@H]3O)c(=O)c3ccccc32)cc1 (racemic) [Example 74, 1-(4-carbamoylbenzyl)-N-[(1,2-trans)-2-hydroxycyclohexyl]-4-oxo-1,4-dihydroquinoline-3-carboxamide]	8.27	97	
NC(=O)c1ccc(Cn2nc(C(=O)N[C@H]3CCCC[C@@H]3O)c(=O)c3ccccc32)cc1 (racemic) [Example 75, 1-(4-carbamoylbenzyl)-N-[(1,2-trans)-2-hydroxycyclohexyl]-4-oxo-1,4-dihydrocinnoline-3-carboxamide]		99	8.11
O=C(N[C@H]1CCCC[C@@H]1O)c1cn(Cc2ccc(-n3cccn3)cc2)c2c(F)cccc2c1=O (racemic) [Example 80, 8-fluoro-N-[(1,2-trans)-2-hydroxycyclohexyl]-4-oxo-1-[4-(1H-pyrazol-1-yl)benzyl]-1,4-dihydroquinoline-3-carboxamide]	7.68	92	
CC(F)(F)c1ccc(Cn2cc(C(=O)N[C@H]3CCCC[C@@H]3O)c(=O)c3ccccc32)cc1 (racemic) [Example 82, 1-[4-(1,1-difluoroethyl)-benzyl]-N-[(1,2-trans)-2-hydroxycyclohexyl]-4-oxo-1,4-dihydroquinoline-3-carboxamide]		83	6.77
COc1ccc(Cn2cc(C(=O)N[C@H]3CC(F)(F)CC[C@@H]3O)c(=O)c3c(F)ccc(F)c32)cc1 (racemic) [Example 84, N-[(1,2-trans)-5,5-difluoro-2-hydroxycyclohexyl]-5,8-difluoro-1-(4-methoxybenzyl)-4-oxo-1,4-dihydroquinoline-3-carboxamide]	7.04	85	
O=C(N[C@H]1CCCC[C@@H]1O)c1cn(Cc2ccc(-c3ccn[nH]3)cc2)c2ccccc2c1=O (racemic) [Example 85, N-[(1,2-trans)-2-hydroxycyclohexyl]-4-oxo-1-[4-(1H-pyrazol-5-yl)benzyl]-1,4-dihydroquinoline-3-carboxamide]	8.33	90	
NC(=O)c1ccc(Cn2cc(C(=O)N[C@H]3CCCC[C@@H]3F)c(=O)c3ccccc32)cc1 (racemic) [Example 88, 1-(4-carbamoylbenzyl)-N-[(1,2-trans)-2-fluorocyclohexyl]-4-oxo-1,4-dihydroquinoline-3-carboxamide]	7.92	101	
Cc1cc(-c2ccc(Cn3cc(C(=O)N[C@H]4CCC[C@@H]4O)c(=O)c4ccccc43)cc2)ccn1 (racemic) [Example 93, N-[(1,2-trans)-2-hydroxycyclopentyl]-1-[4-(2-methylpyridin-4-yl)benzyl]-4-oxo-1,4-dihydroquinoline-3-carboxamide]	7.92	95	
COc1ccc(Cn2cc(C(N)=O)c(=O)c3c(F)ccc(F)c32)cc1 [Example 1, 5,8-difluoro-1-(4-methoxybenzyl)-4-oxo-1,4-dihydroquinoline-3-carboxamide]		90	6.20
CNC(=O)c1cn(Cc2ccc(OC)cc2)c2c(F)ccc(F)c2c1=O [Example 7, 5,8-difluoro-1-(4-methoxybenzyl)-N-methyl-4-oxo-1,4-dihydroquinoline-3-carboxamide]		71	5.46
COc1ccc(Cn2cc(C(=O)NC3CC3)c(=O)c3c(F)ccc(F)c32)cc1 [Example 8, N-cyclopropyl-5,8-difluoro-1-(4-methoxybenzyl)-4-oxo-1,4-dihydroquinoline-3-carboxamide]		100	5.70
COc1ccc(Cn2cc(C(=O)NN)c(=O)c3ccccc32)cc1 [Example 13, 1-(4-methoxybenzyl)-4-oxo-1,4-dihydroquinoline-3-carbohydrazide]		77	5.21
COc1ccc(Cn2cc(C(=O)NC3CCCCC3)c(=O)c3c(F)ccc(F)c32)cc1 [Example 14, N-cyclohexyl-5,8-difluoro-1-(4-methoxybenzyl)-4-oxo-1,4-dihydroquinoline-3-carboxamide]		96	6.04
COc1ccc(Cn2cc(C(=O)NCCO)c(=O)c3c(F)ccc(F)c32)cc1 [Example 17, 5,8-difluoro-N-(2-hydroxyethyl)-1-(4-methoxybenzyl)-4-oxo-1,4-dihydroquinoline-3-carboxamide]		69	5.24
COCCNC(=O)c1cn(Cc2ccc(OC)cc2)c2c(F)ccc(F)c2c1=O [Example 20, 5,8-difluoro-1-(4-methoxybenzyl)-N-(2-methoxyethyl)-4-oxo-1,4-dihydroquinoline-3-carboxamide]		72	5.30
COc1ccc(Cn2cc(C(=O)NN3CCCCC3)c(=O)c3c(F)ccc(F)c32)cc1 [Example 21, 5,8-difluoro-1-(4-methoxybenzyl)-4-oxo-N-piperidin-1-yl-1,4-dihydroquinoline-3-carboxamide]		97	6.55
COc1ccc(Cn2cc(C(=O)N[C@H]3CCCC[C@@H]3O)c(=O)c3c(F)ccc(F)c32)cc1 [Example 27, 5,8-difluoro-N-[(1S,2S)-2-hydroxycyclohexyl]-1-(4-methoxybenzyl)-4-oxo-1,4-dihydroquinoline-3-carboxamide]	7.42	102	
COc1ccc(Cn2nc(C(=O)N[C@H]3CCCC[C@@H]3O)c(=O)c3ccccc32)cc1 [Example 51, N-[(1S,2S)-2-hydroxycyclohexyl]-1-(4-methoxybenzyl)-4-oxo-1,4-dihydrocinnoline-3-carboxamide]		97	7.17
COc1ccc(Cn2nc(C(=O)N[C@@H]3CCCC[C@H]3O)c(=O)c3ccccc32)cc1 [Example 52, N-[(1R,2R)-2-hydroxycyclohexyl]-1-(4-methoxybenzyl)-4-oxo-1,4-dihydrocinnoline-3-carboxamide]		87	5.72
NC(=O)c1ccc(Cn2nc(C(N)=O)c(=O)c3ccccc32)cc1 [Example 73, 1-(4-carbamoylbenzyl)-4-oxo-1,4-dihydrocinnoline-3-carboxamide]		96	7.20
